Experimental data: US20030035851A1, “Anti-cancer agents and method of use thereof” (priority 2001, published 2003)
In brackets after ≈: the same amount, converted by molar mass.

Key:
LNCaP cell cycle = assay: Cell cycle distribution by DNA flow cytometry, LNCaP; assay type: cell-based, Human; design: cells arrested in the G1 phase: dose or concentration left out as unconfirmed
Excerpt: The cell cycle is the program for cell growth and cell proliferation (cell division). There are four phases of the cell cycle: G1, S, G2, and M. The G1 phase is characterized by gene expression and protein synthesis, and is regulated primarily by extracellular stimuli. During the S phase, the cell replicates its DNA. During the G2 phase, the cell undergoes growth and protein synthesis in preparation for cell division. The M phase is characterized by cytokinesis of the cell into two daughter cells.
The effect of oridonin and lupulone on LNCaP cells was determined by the following method. 2×10^6-4×10^6 cultured cells were exposed to varying concentrations (e.g., 1.5 microgram/milliliter (ug/ml)-3 ug/ml) of oridonin or lupulone for 24-48 hours in 12.5 cm^2 area flasks before being harvested. The cells were washed with phosphate buffered saline (PBS) and fixed in ice-cold 70% ethanol.
The distribution of cells in various stages of the cell cycle were determined by first staining the cells with the DNA specific fluorochrome, and then by measuring cellular DNA content with an ELITE ESP flow cytometer (Coulter Inc., Fl.) using UV laser illumination. The Multicycle program (Phoenix Flow Systems) was used to deconvolute the DNA frequency histograms to estimate the frequency of cells in different phases of the cell cycle, and those in apoptosis.

LNCaP and DU-145 = assay: Cell growth inhibition of LNCaP and DU-145 by DES (FIG. 14); assay type: cell-based; details: previous study
DU-145 cell cycle = assay: Cell cycle distribution by DNA flow cytometry, DU-145; assay type: cell-based; details: for cell cycle arrest phase / increase in the number of cells arrested in the S phase compared to the control / cells arrested in the G2M phase: DU-145; for increase in the number of cells arrested in the S phase compared to the control: FIG. 6
DU-145 cells = assay: MTT cell proliferation assay, DU-145; assay type: cell-based; details: for ED50 values from MTT Assay, DU-145: concentration giving 50% inhibition of cancer cell growth, 72 hours, linear interpolation of FIGS. 1-3
Method: (§1) The cells were routinely seeded at 1×10^5 cells/ml in T-75 flasks, allowed to attach overnight, and then treated with the oridonin or the lupulone. At different times, the cells were harvested by trypsinization.
(§2) The inhibitory effect on a cell's ability to divide was determined by an MTT (3-(4,5-dimethylthiazol-2-yl)-2,5-diphenyl tetrazolium bromide) assay. The assay reagents were purchased from Boehringer Mannheim (Roche Diagnosis Corp, Indianapolis, Ind.). […] The MTT assay provides a method whereby cell proliferation can be determined by […]. The protocol for the cell viability assay was provided by Boehringer Mannheim and modified as described below.
(§3) The cells were then incubated at […] and allowed to attach to the plates. After 24 hours, 20 microliter aliquots having varying concentrations of oridonin or lupulone were added to the cell culture. Each aliquot was plated into 3 wells to obtain mean values. […] The plates were incubated at 37° C. in a CO2 incubator for 72 hours. After 72 hours, the culture medium was carefully removed without disturbing the cells and replaced by 100 microliters of fresh cell medium. 10 microliters of MTT was added to each well and the plates were incubated in the CO2 incubator at 37° C. for 4 hours. Afterwards, 100 microliters of sodium dodecylsulfate (SDS) solubilizing reagent (from Boehringer Mannheim) was added to each well. The plates were placed in the CO2 incubator at 37° C. for about 10-14 hours. Afterwards, the cell concentration of each plate was determined by an ELISA Reader (EL800, Bio-Tek Instruments, Inc.) at a wavelength of […]. The percent cell viability was calculated according to the equation below: [formula]
(§4) where V is the percent cell viability, Acontrol is the absorption of the control cells, and Atreated is the absorption of the treated cells.

LNCaP cells [1] = assay: MTT cell proliferation assay, LNCaP; assay type: cell-based, Human; details: for ED50 values from MTT Assay, LNCaP: concentration giving 50% inhibition of cancer cell growth, 72 hours, linear interpolation of FIGS. 1-3
Method: as §1, §2, §3, §4

MCF-7 cell cycle = assay: Cell cycle distribution by DNA flow cytometry, MCF-7; assay type: cell-based; details: for cells arrested in the G1 phase: FIG. 7
MCF-7 cells = assay: MTT cell proliferation assay, MCF-7; assay type: cell-based; details: for ED50 values from MTT Assay, MCF-7: concentration giving 50% inhibition of cancer cell growth, 72 hours, linear interpolation of FIGS. 1-3
Method: as §1, §2, §3, §4

[2] = system: Bax and Bcl-2 protein expression; assay: Western blot of Bax and Bcl-2 in LNCaP; assay type: cell-based, Human; details: 8.24 uM and 13.74 uM of oridonin, 48 hours, FIG. 11
Method: To determine the Bcl-2:Bax ratio in oridonin-incubated LNCaP cells, a Western blotting procedure was performed. LNCaP cells were prepared such that one sample contained was incubated in the absence of oridonin, another sample in 8.24 uM of oridonin, and another sample in 13.74 uM of oridonin. The samples were incubated for 48 hours. Equal amounts of protein (10 micrograms) from LNCaP cell lysates were applied to a 10% SDS/PAGE (sodium dodecylsulfate/polyacrylamide gel electrophoresis) gel, and were then transferred to a PVDF membrane. The blots were probed with one of two primary antibodies comprising 1:100 Anti-Bax YTH-2D2 (Lot#3148E0, R&D, MN USA), and 1:100 Bcl-2 Oncoprotein (Clone 124, No. M0887), followed by second antibody exposure of 1:1000 Anti-mouse IgG-HRP (se-2005, Santa Cruz Biotechnology, USA) for 1 hour at […] temp. The immuno-binding signals were detected by the chemiluminescence method (ECL Western blotting system). The experiments were run in triplicates.

LNCaP cells [3] = assay: TdT DNA strand break apoptosis assay, LNCaP; assay type: cell-based, Human; details: oridonin 13.7uM, 48 hours, FIG. 13
Method: To determine apoptosis in cells, a quantitative assay for the detection of DNA breakage, using the terminal deoxyribonucleotide transferase (TdT) color reaction assay (TiterTACS, Trevigen, Gaithersburg, Md.), was employed. Cells were fixed in 1% ice-cold formaldehyde for 15 minutes and postfixed in 70% ethanol overnight at −20° C. DNA strand breaks were directly labeled with fluorescent (2′-deoxyuridine 5′-triphosphate) dUTP in the reaction catalyzed by exogenous terminal deoxynucleotidyltransferase using the APO-Direct kit (Phoenix Flow System, San Diego, Calif.) according to the protocol provided with the kit. The green (FITC) and red (PI) fluorescence intensities of cells subjected to labeling DNA strand breaks with the use of TdT were measured using a FACScan Flow Cytometer (Becton Dickinson Immunocytometry Systems, San Jose, Calif.). The data from 10^4 cells per sample were collected, stored and analyzed using CELL Quest software (Becton Dickinson and Co.).

Bax = assay: Flow cytometric measurement of Bax protein in LNCaP; assay type: cell-based, Human; details: flow cytometry
Method: (§5) To further verify the increase in Bax and the decrease in Bcl-2 proteins, and to determine the p53 protein levels induced by oridonin, flow cytometric measurement was performed to compare the results as obtained by Western blot. Following treatment with 3-9 μM of oridonin for 48 h, the LNCaP cells were trypsinized and washed with PBS. The cells were fixed in 1% formaldehyde in PBS on ice for 10 minutes and then permeabilized with 70% ethanol at −20° C. After fixation, the cells were rinsed with PBS, treated with a blocking solution containing 1% (w/v) bovine serum albumin (BSA) and 0.1% sodium azide in PBS (PBS-BSA) for 2 min at room temperature. The cells were subsequently added to a 100 μl aliquot of BSA/PBS solution containing 1:50 diluted primary antibody for Bcl-2, Bax (stained LNCaP) and p53. The mixtures were incubated at room temperature in the dark for 1 hr. The cells were subsequently washed twice with PBS-BSA buffer. The secondary antibody was added at 1:50 dilution for 30 minutes at room temperature in the dark, then counterstained for DNA by the addition of 1 ml of PI […] solution (final PI concentration 5 μg/ml) containing 100 μg/ml of RNAse A. Cellular fluorescence was measured with the ELITE ESP flow cytometer/cell sorter (Coulter Inc., Miami, Fla.) using the argon ion laser (emission at 488 nm). Fluorescence signals were collected using the standard configuration of the flow cytometer (green fluorescence for antibodies containing Bcl-2, Bax, and p53, and red fluorescence for DNA staining). 10,000 cells were analyzed per sample.

p53 = assay: Flow cytometric measurement of p53 protein in LNCaP; assay type: cell-based, Human; details: for increase in p53 concentration: FIG. 12
Method: as §5

Bcl-2 = assay: Flow cytometric measurement of Bcl-2 protein in LNCaP; assay type: cell-based, Human; details: 8.24 uM oridonin, flow cytometry, CTRL 11.3
Method: as §5, with “The cells were subsequently added to a 100 μl aliquot of BSA/PBS solution containing 1:50 diluted primary antibody for Bcl-2, Bax (stained LNCaP) and p53. The mixtures were incubated at room temperature in the dark for 1 hr. The cells were subsequently washed twice with PBS-BSA buffer.” left out

[4] = about 100 ug/ml of lupulone, FIG. 2
[5] = about 5 ug/ml of oridonin, FIG. 1

## CC/C(=C(/CC)c1ccc(O)cc1)c1ccc(O)cc1 [DES, reference compound]
LNCaP cell cycle; DES (30 μM per FIG. 15 legend)
  cell cycle arrest phase: G2M phase arrest
LNCaP and DU-145
  times more sensitive in inhibiting LNCaP than in inhibiting DU-145: about 2.5 times
DU-145 cell cycle; DES
  cell cycle arrest phase: G2M phase arrest

## CC(C)=CCC1=C(O)C(CC=C(C)C)(CC=C(C)C)C(=O)C(C(=O)CC(C)C)=C1O [Lupulone, lupulone]
DU-145 cells; [4]
  proliferation decreased compared to the control: more than 55%
DU-145 cells
  ED50 values from MTT Assay, DU-145: 89.7 µg/mL (≈ 216 µM)
LNCaP cells [1]; [4]
  proliferation decreased compared to the control: more than 75%
LNCaP cells [1]
  ED50 values from MTT Assay, LNCaP: 36.53 µg/mL (≈ 88.1 µM)
LNCaP cell cycle; lupulone (50 μg per FIG. 5 legend)
  increase of cells arrested in the G2M phase compared to cells not exposed: about 100%
MCF-7 cell cycle; 60 micromolar (25 microgram/milliliter)
  effect on cell cycle: G1 phase arrest
MCF-7 cell cycle; 120 micromolar (50 microgram/milliliter)
  effect on cell proliferation: complete block of cell proliferation
MCF-7 cells; about 100 ug/ml of lupulone, FIG. 3
  proliferation decreased compared to the control: more than 85%
MCF-7 cells
  ED50 values from MTT Assay, MCF-7: 56.62 µg/mL (≈ 137 µM)

## oridonin
DU-145 cells; [5]
  proliferation decreased over that of the control: more than 80%
DU-145 cells
  ED50 values from MTT Assay, DU-145: 3.03 µg/mL
[2]
  ratio of Bax/Bcl-2 by Western blot: increased significantly
LNCaP cells [1]; [5]
  proliferation reduced over that of the control: about 75%
LNCaP cells [1]
  ED50 values from MTT Assay, LNCaP: 2.11 µg/mL
LNCaP cells [3]
  cell apoptosis: About 6%
LNCaP cell cycle; 3 ug/ml of oridonin, FIG. 5
  more cells arrested in the G1 phase compared to cells not exposed: over 25%
LNCaP cell cycle; oridonin
  cell cycle arrest phase: G1 cell cycle arrest
LNCaP cell cycle; oridonin 3 μg/ml, 24 hr, FIG. 4
  cells in the G1 phase of the cell cycle: over 65%
LNCaP cell cycle; oridonin, FIG. 9b
  cells arrested in the G1 phase: about 68%
DU-145 cell cycle; DU-145 (so in the source), about 8.20 uM-22 uM of oridonin, FIG. 10
  cells arrested in the G1 phase: over 60%
DU-145 cell cycle; 1.5 ug/ml of oridonin
  increase in the number of cells arrested in the S phase compared to the control: ~16%
DU-145 cell cycle; 3.0 ug/ml of oridonin
  increase in the number of cells arrested in the S phase compared to the control: about 30%
DU-145 cell cycle; FIG. 9d
  cells arrested in the G2M phase: about 37%
DU-145 cell cycle; about 8.20 uM-22 uM of oridonin, FIG. 10
  cells arrested in the G2M phase: 30-55%
DU-145 cell cycle; oridonin
  cell cycle arrest phase: G2M arrest
Bax; 8.24uM of oridonin
  increase in the ratio of Bax/Bcl-2: ~75%
Bax; 8.24 uM oridonin, CTRL 1
  Bax/Bcl-2: 1.8
Bax; 8.24 uM oridonin, CTRL 11.8
  Bax: 14.5
p53; 8.2 uM of oridonin
  increase in p53 concentration: Approximately 40%
p53; 8.24uM oridonin, flow cytometry
  increase in the ratio of p53/Bcl-2: 100%
p53; 8.24 uM oridonin, flow cytometry, CTRL 1
  p53/Bcl-2: 2.0
p53; 8.24 uM oridonin, flow cytometry, CTRL 8.8
  p53: 12.3
p53; 13.74 uM of oridonin
  increase in p53 concentration: ~100%
MCF-7 cell cycle; 25 ug/ml
  cells arrested in the G1 phase: about 35%
MCF-7 cell cycle; 50 ug/ml
  cells arrested in the G1 phase: about 90%
Bcl-2
  Bcl-2: 7.9
MCF-7 cells
  ED50 values from MTT Assay, MCF-7: 1.71 µg/mL
MCF-7 cells; under 15 ug/ml of oridonin, FIG. 3
  absorbance reading of MTT: 0
